We go through 3 molecules from article PMC10612037 (Viruses, 2023).

Where a name gives a salt, the structure may show the parent alone.

For data set [1], the system named is HIV-1 xxLAI. Briefly: microbe, parasite or virus in culture. In kind it is cell-based. The following applies: Human immunodeficiency virus 1; unpassaged HIV-1 xxLAI WT stock virus.
Data set [2] concerns HIV-1 NL4-3. Description: Dose-response assay in TZM-GFP cells, NL4-3 molecular clones with RT mutations. Conditions: for major resistance observed: all NL4-3 mutants tested, major = >12-fold for ISL, >4-fold for TDF.
For data set [3], the system named is HIV-1 isolates B, C, CRF_AE, CRF_AG. In kind it is cell-based.
In data set [4] the test system is HIV-1 RT. Also on record: method as in earlier work. The following applies: K65R RT; cited from earlier work.
In data set [5] the test system is HIV-1 subtypes A, B, C, D, CRF_AE, CRF_AG. Description: Dose-response assay in TZM-GFP cells, diverse primary isolates.
The conditions of data set [6]: cited from earlier work.
Data set [7] has as its system HIV-1 reverse transcriptase (endogenous RT in virions). Briefly: Endogenous reverse transcriptase assay. It is filed as biochemical. The following applies: K65R virions.

In data set [1], `C#C[C@]1(CO)O[C@@H](n2cnc3c(N)nc(F)nc32)C[C@@H]1O` [ISL, 4′-ethynyl-2-fluoro-2′-deoxyadensine] returned a half-maximal effective concentration (EC50) of 3.6 nM. Besides, the “fold more sensitive than WT (EC50)” value in data set [2] (NL4-3 K65R) is 4 fold. The major resistance observed entry in data set [2] is “No major resistance”. Moreover, in data set [3] (CRF_AE backbone), the “fold more susceptible, K65R with Ser68 vs K65R with Gly68” value amounted to 3 fold and the “susceptibility of Ser68 compared with Gly68” value was “more susceptible”. The “sensitivity of mutant relative to WT” value in data set [3] (K65R, regardless of the isolate (B, C, CRF_AE, CRF_AG)) was “hypersensitivity”. In addition, the “fold more susceptible than wildtype RT” value in data set [4] is recorded as 4 fold. Besides, in data set [5] (all subtypes (A, B, C, D, CRF_AE, CRF_AG), 8-10 isolates each), the “EC50 fold change from NL4-3” value was “no more than 1.3 fold”. Further, the tolerability result in data set [6] (early clinical studies in humans) is “well tolerated”. For the same molecule, the “effect on CD4 T cell population” value in data set [6] (lower dose of ISL) is reported as “without any effects on the CD4 T cell population”. Further, in data set [6] (subsequent clinical studies, patients on ISL), the “effect on CD4 T cells” value is recorded as “decline in CD4 T cells”.
Regarding `CC(C)OC(=O)OCOP(=O)(CO[C@H](C)Cn1cnc2c(N)ncnc21)OCOC(=O)OC(C)C` [TDF, Tenofovir disoproxil fumarate], the EC50 in data set [1] came to 24.6 nM. Moreover, the “fold resistance relative to WT (EC50 fold change)” value in data set [2] (NL4-3 K65R) was determined as 3 fold. For the same molecule, the major resistance observed entry in data set [2] is recorded as “No major resistance”. Besides, the “EC50 fold change from NL4-3” value in data set [5] (subtype A) is recorded as 1.3 fold; in data set [5] (subtype B) it was 2.2 fold; in data set [5] (subtype C), 2.2 fold; in data set [5] (subtype D), 1.6 fold.
For `C[C@@H](Cn1cnc2c(N)ncnc21)OCP(=O)(O)OP(=O)(O)OP(=O)(O)O` [TFV-DP], in data set [7], the “resistance phenotype (IC50 fold change from WT)” value is recorded as “conferred resistance”.
